# Test results as given in PubChem BioAssay AID1159561 (GlaxoSmithKline (GSK), 2015).
# Calls of active or inactive are those of the source.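 Rule for the calls: active = toxic to mouse fibroblast host cells, with IC50 below 50 µM; inactive = the rest.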
# Tested on: NIH-3T3 viability, ATP luminescence
# Experiment: murine fibroblast viability via ATP level – cell-based, murine fibroblasts, cytotoxicity control for Trypanosoma cruzi inhibitor project (AID 1159561)
# Conditions: 4 days
row,SMILES,IC50
1,O=c1[nH]ccc2ccc(-c3ccncc3)cc12,> 50 µM (inactive)
2,COc1ccc(-c2cc(C)no2)cc1S(=O)(=O)Nc1ccc(F)c(Cl)c1,25 µM
3,Cc1nnnn1-c1cccc(C(=O)N2CCC[C@@]3(C)c4ncncc4CCC23)c1 (stereo partly specified),> 50 µM (inactive)
4,Clc1ccc(CN2CCN(C3=NCCN3)CC2)cc1Cl,40 µM
5,O=C(NCc1ccc(-n2cccc2)cc1)c1nc(Cn2ccc([N+](=O)[O-])n2)no1,50 µM
6,CN(Cc1nnnn1C1CCN(Cc2ccc(-n3ccnc3)cc2)CC1)c1ccc(F)cc1F,25 µM
7,c1cc(-c2ncc(-c3ccn[nH]3)s2)ccn1,> 50 µM (inactive)
8,O=C(Nc1cccc(Cl)c1)N1CCCCC1c1cccnc1 (stereo unspecified),32 µM
9,C=CCOCC1Cn2nc([N+](=O)[O-])nc2O1 (stereo unspecified),> 50 µM (inactive)
10,Cc1cc(Br)cc(C(=O)c2c(C(C)C)c(=O)[nH]c(=O)n2Cc2ccnc(N)c2)c1,16 µM
11,c1ccc(CCNCc2cncc3nc(-c4cnccn4)n(C4CCCCC4)c23)cc1,6.3 µM
12,Cc1[nH]c2ccccc2c(=O)c1Cc1c(C)[nH]c2ccccc2c1=O,> 50 µM (inactive)
13,Cc1nc2nc(C)c(Cc3ccc(C(C)C)cc3)c(=O)n2[nH]1,> 50 µM (inactive)
14,O=C(CSc1ccc(F)cc1)N[C@@H](Cc1cnc[nH]1)C(=O)NCCc1ccccc1,13 µM
15,CN(C)Cc1ccc(N2CCC(NS(=O)(=O)c3ccc(Cl)cc3)CC2)cc1,16 µM
16,O=C(NCCc1cccnc1)c1csc(-c2ccccc2)n1,50 µM
17,COc1ccc2ncc(F)c(NC(=O)C3(O)CCC(NCc4ccc5c(c4)OCCO5)CC3)c2n1 (stereo unspecified),7.9 µM
18,Cc1c(C(C)NC(=O)Nc2cccc(Cl)c2)sc2ncnn12 (stereo unspecified),> 50 µM (inactive)
19,CCCN1CCN(Cc2ccc(S(=O)(=O)Nc3cccc(C)c3)cc2)CC1,25 µM
20,CN(Cc1nc2ccccc2s1)C(=O)C=Cc1cc2ccccc2o1,32 µM
21,COc1ccc(-c2ccc3nnc(-c4ccc(O)c(OC)c4)n3c2)cn1,50 µM
22,CC(Cn1ccnc1)NC(=O)C1CC1c1cccc(Cl)c1Cl (stereo unspecified),> 50 µM (inactive)
23,CCC(=O)Nc1ccc(C(=O)Nc2ccccc2-c2ccccc2)cc1,> 50 µM (inactive)
24,O=[N+]([O-])c1ccc(C2=CC(c3ccccc3)=NCCN2)cc1,7.9 µM
25,Cc1ccc2sc(NC(=O)Cn3cnc([N+](=O)[O-])n3)nc2c1,50 µM
26,CN(Cc1cc2ccccc2s1)c1ncc2c(N)nc(N)nc2n1,25 µM

row,SMILES,IC50
1,c1cncc(CN(Cc2ccco2)Cc2cn[nH]c2-c2cccs2)c1,32 µM
2,O=C(Nc1ccc(Br)cn1)c1ccc(Cn2cnc([N+](=O)[O-])n2)cc1,> 50 µM (inactive)
3,C=CCn1nc([N+](=O)[O-])nc1Oc1ccc(Cl)cc1Cl,50 µM
4,CN(C)CCOc1ccc(N2CCN(S(=O)(=O)c3ccc(Cl)cc3)CC2)cc1,16 µM
5,O=C(NCC1CCCCC1)c1cnns1,> 50 µM (inactive)
6,Cc1nccn1C1CCCN(C(=O)c2cc3c(F)cccc3s2)C1 (stereo unspecified),20 µM
7,Clc1cc(Br)ccc1OCCCCn1ccnc1,16 µM
8,CN(Cc1ccc(C(N)=O)cc1)C(c1ccc(F)cc1)c1cccnc1 (stereo unspecified),32 µM
9,O=C1CSC(c2cccnc2)N1c1ccc(Cl)cc1Cl (stereo unspecified),> 50 µM (inactive)
10,Cc1cccnc1CN1CCN(CCCOc2ccc(-c3ccc(C(N)=O)cc3)cc2)CC1,6.3 µM
11,CN(Cc1cccnc1)Cc1ccc(N2CCN(C(=O)C3(c4ccc(Cl)cc4)CC3)CC2)nc1,7.9 µM
12,OC1CCC(Nc2nccc(-c3sc(C4CCOCC4)nc3-c3ccc(F)c(F)c3)n2)CC1 (stereo unspecified),40 µM
13,COc1ccc(C(C)(C)C)cc1S(=O)(=O)n1ccnc1,> 50 µM (inactive)
14,Cc1ccc(NC(=O)c2ccc(Cl)c(NC(=O)c3ccc([N+](=O)[O-])cc3)c2)cc1,20 µM
15,Cc1ccc2ccc(C(Nc3ccccn3)c3cccnc3)c(O)c2n1 (stereo unspecified),10 µM
16,O=c1oc2ccccc2n1C1CCN(Cc2ccccc2-c2cccnc2)CC1,16 µM
17,Cc1cc(N(C)C)nc(Nc2ccccc2C)n1,40 µM
18,COc1cccc(-c2cc(C(F)(F)F)nc(-n3ccc([N+](=O)[O-])n3)n2)c1,> 50 µM (inactive)
19,Cc1cccc(N2CCCN(Cc3c[nH]c4ccccc34)CC2)n1,25 µM
20,O=C(CCCn1cnc([N+](=O)[O-])n1)Nc1cccc(Cl)c1,> 50 µM (inactive)
21,O=C(c1cccc(Cl)c1Cl)N1CCn2c1nc(-c1ccncc1)cc2=O,20 µM
22,CNc1cc(Cn2c(C(=O)c3cc(C)cc(Cl)c3)c(C(C)C)c(=O)[nH]c2=O)ccn1,10 µM
23,Cc1cccc(NS(=O)(=O)c2ccc3c(c2)C(=O)c2cc(S(=O)(=O)Nc4cccc(C)c4C)ccc2-3)c1C,> 50 µM (inactive)
24,CCN(Cc1ccncc1)Cc1ccc(NC(=O)c2cc(-c3ccc(F)cc3)n[nH]2)cc1,10 µM
25,CC(Cn1ccnc1)NC(=O)C=Cc1ccc(Cl)cc1 (stereo unspecified),> 50 µM (inactive)
26,COc1cc(NC(=O)Nc2cccc(CNC(=O)OC3CCCCC3)c2)ccc1-c1cnco1,10 µM

row,SMILES,IC50
1,Cc1ccccc1OCC(=O)N1CCCN(c2cccnn2)CC1,50 µM
2,Cn1cc(CN2CCN(c3ccc4c(c3)CCN(C(=O)[C@H]3C[C@@H]3c3ccccc3)CC4)CC2)cn1,20 µM
3,CCOc1cnn(C)c(=O)c1Nc1ccc(C(=O)NCc2ccc(F)cc2)cc1,> 50 µM (inactive)
4,COc1ccc([N+](=O)[O-])cc1NC(=O)Nc1cccc(Cl)c1,> 50 µM (inactive)
5,O=C(C1CCCCC1)N1CCN(c2nnc(-c3ccccc3)c3ccccc23)CC1,> 50 µM (inactive)
6,Cc1c(C#N)c([N+](=O)[O-])nn1Cc1cccc(Cl)c1Cl,40 µM
7,CNc1cncc(C2CCCN2C(=O)Cc2coc3cc(C)ccc23)n1 (stereo unspecified),> 50 µM (inactive)
8,COc1ccc(NS(=O)(=O)c2cc(NC(=O)c3ccc([N+](=O)[O-])s3)ccc2OC)cc1,> 50 µM (inactive)
9,N#Cc1cccc(CN2CCC(N(Cc3cccnc3)C(=O)c3cc(F)c(F)cc3F)CC2)c1,20 µM
10,CC(C)N(C(=O)CN1C(=O)C(N)C(=O)N(c2ccccc2)c2ccccc21)c1ccccc1 (stereo unspecified),20 µM
11,CCCCn1nnnc1CSc1nc(C)cc(C)c1C#N,> 50 µM (inactive)
12,Cn1nc([N+](=O)[O-])nc1Oc1ccc(C(=O)c2ccccc2)cc1,> 50 µM (inactive)
13,O=C(c1cnn(-c2ccccc2)n1)N1CCCC(n2ccnc2)C1 (stereo unspecified),20 µM
14,O=C(Nc1ccc(C(=O)N2CCCC2c2ccc3c(c2)OCCCO3)cc1)c1ccco1 (stereo unspecified),> 50 µM (inactive)
15,N#Cc1cc([N+](=O)[O-])ccc1NC1CCCCCC1,> 50 µM (inactive)
16,O=C(NCC1CCCCC1)c1cc(=O)c2ccccc2o1,32 µM
17,COc1ccc(-c2nc3ncccc3o2)cc1NC(=O)c1cccs1,> 50 µM (inactive)
18,FC(F)(F)c1cc(C2CCCN(Cc3c[nH]c4ccccc34)C2)nc2ncnn12 (stereo unspecified),20 µM
19,CC(C(=O)Nc1ccc(Br)cc1)N1CCN(c2ccc([N+](=O)[O-])cc2)CC1 (stereo unspecified),> 50 µM (inactive)
20,O=C(CN(c1cccc(C(F)(F)F)c1)S(=O)(=O)c1ccc(Cl)cc1)NCc1ccc(F)c(F)c1,32 µM
21,O=C(Cn1cnc2cc([N+](=O)[O-])ccc2c1=O)NCCc1ccc(Cl)cc1Cl,> 50 µM (inactive)
22,Cc1cc(C#N)c([N+](=O)[O-])cc1Br,20 µM
23,CN(C)c1ncc(-c2cncn2CCOc2ccc(Cl)cc2)cn1,40 µM
24,CNc1cncc(C2CCCN2C(=O)Cc2ccc3ccccc3c2)n1 (stereo unspecified),> 50 µM (inactive)
